EP0251827A2, “New cyclic ether derivatives, their preparation and their use” (Sankyo Company Limited, priority 1986, dated 1988)

Test system: PAF-induced hypotension
Test: Inhibition of PAF-induced hypotension
Type: in vivo, rats of the Wistar-Imamichi strain
Conditions: Rattus norvegicus, iv; 50% inhibitory dose from dose-response curve for inhibition of PAF-induced hypotension; rats; read-out: Inhibition of Hypotension ID50
Experimental: The test animals employed were rats of the Wistar-Imamichi strain, each weighing between 350 and 450 g.
Under Inactin anesthesia (90 mg/kg administered intraperitoneally) the left femoral artery and vein of each test animal were cannulated to enable the arterial blood pressure to be monitored continuously and for drug administration, respectively. At intervals of about 5 minutes, each animal was given by intravenous injection 10 ng/kg of synthetic I-C16:0 PAF until a steady hypotensive response was achieved. At this time, the drug to be tested was administered by intravenous injection in doses increasing cumulatively by a factor of 4. Within I minute of this injection, a further 10 ng/kg of the IC16:0 PAF was administered. The hypotensive response to PAF was inhibited by the test drug in a dose-related manner.
The PAF was administered in the form of a solution in physiological saline containing 0.25% w/v bovine serum albumin. The test drugs were dissolved in physiological saline containing 20% v/v ethanol.
The 50% inhibitory dose (ID 50 ) was calculated from the dose-response curve constructed for the inhibition of PAF-induced hypotension.
This test was carried out using compounds of the invention, as well as the prior art compound CV-3988, disclosed in US Patent No. 4,408,052 and represented by the foregoing formula (B).

SMILES: CCCCCCCCCCCCCCCCCCNC(=O)OCC(COP(=O)([O-])OCC[n+]1ccsc1)OC (stereo not shown) [CV - 3988]
- ED50: 0.42 mg/kg
